US20060004197A1, “Sulfonamide-based compounds as protein tyrosine kinase inhibitors” (priority 2004, published 2006)

The compounds below were run against T1, Recombinant human Src (Homo sapiens, UniProt P12931) (assay: Src tyrosine kinase activity, poly E4Y / 32P-ATP phosphorylation assay). Conditions: Table 2, Formula I compounds; NI = no inhibition at 100 μg/mL.
T1 construct: made in house; host or cells: baculovirus-insect cell system
Format: biochemical
Description: Recombinant human Src was expressed using the baculovirus-insect cell system and purified as published (Budde et al., 1993 and 2000).
The tyrosine kinase activity of Src, Csk and FGFr was determined using poly E4Y and ^32P-ATP. Briefly, enzymes were assayed in a reaction mixture consisting of 0.15 M EPPS-NaOH (pH 8.0) with 6 mM MgCl2, 0.2 mM γ^32P-ATP (0.2-0.4 mCi/μmol), 10% glycerol, 0.1% Triton X-100, and poly E4Y. Poly E4Y is a synthetic peptide whose phosphorylation is measured in this assay by the addition of the radioactively labeled phosphate from the ATP (Budde et al., 1995). […] When ATP was varied (0, 50, 100 and 250 μM), poly E4Y was kept constant at 150 μg/ml.

T1 sequence (P12931 whole entry): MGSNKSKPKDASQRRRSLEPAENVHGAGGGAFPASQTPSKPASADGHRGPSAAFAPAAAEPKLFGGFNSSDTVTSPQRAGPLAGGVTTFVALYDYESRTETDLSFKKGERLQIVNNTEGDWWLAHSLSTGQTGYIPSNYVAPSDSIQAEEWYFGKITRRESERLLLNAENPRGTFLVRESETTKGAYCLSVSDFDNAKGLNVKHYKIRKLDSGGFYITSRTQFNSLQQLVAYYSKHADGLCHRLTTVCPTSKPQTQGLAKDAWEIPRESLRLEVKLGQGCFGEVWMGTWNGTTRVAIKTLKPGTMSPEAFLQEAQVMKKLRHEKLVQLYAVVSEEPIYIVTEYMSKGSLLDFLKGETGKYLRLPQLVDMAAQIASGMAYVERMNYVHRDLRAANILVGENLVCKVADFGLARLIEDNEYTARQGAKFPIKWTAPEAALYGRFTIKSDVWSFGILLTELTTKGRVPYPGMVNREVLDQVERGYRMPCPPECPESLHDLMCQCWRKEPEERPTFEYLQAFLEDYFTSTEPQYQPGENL

IC50 [µM]	Structure (SMILES)
> 176	Cc1ccc(S(=O)(=O)Nc2cc(NCc3cccnc3)c([N+](=O)[O-])cc2NS(=O)(=O)c2ccc(C)cc2)cc1 [Compound 9d, N-[5-nitro-4-[(pyridin-3-ylmethyl)-amino]-2-(4-toluenesulfonylamino)-phenyl]-4-toluenesulfonamide]
54	Cc1ccc(S(=O)(=O)Nc2cc(NCc3ccccc3Cl)c([N+](=O)[O-])cc2NS(=O)(=O)c2ccc(C)cc2)cc1 [Compound 9g, N-[4-(2-chloro-benzylamino)-5-nitro-2-(4-toluenesulfonylamino)-phenyl]-4-toluenesulfonamide]

Same assay, conditions: Table 2; compound at 15 ug/mL; read-out: % Inhibition at 15 ug/mL Src (%)

inhibition at 15 µg/mL [%]	Structure (SMILES)
2	Cc1ccc(S(=O)(=O)Nc2cc(N3CCN(C)CC3)c([N+](=O)[O-])cc2NS(=O)(=O)c2ccc(C)cc2)cc1 [Compound 9b, N-[4-(4-methyl-piperazin-1-yl)-5-nitro-2-(4-toluenesulfonylamino)-phenyl]-4-toluenesulfonamide]
15	Cc1ccc(S(=O)(=O)Nc2cc(N3CCSCC3)c([N+](=O)[O-])cc2NS(=O)(=O)c2ccc(C)cc2)cc1 [Compound 9c, N-[5-nitro-4-(thiomorpholin-4-yl)-2-(4-toluenesulfonylamino)-phenyl]-4-toluenesulfonamide]
15	Cc1ccc(S(=O)(=O)Nc2cc(NCc3ccccn3)c([N+](=O)[O-])cc2NS(=O)(=O)c2ccc(C)cc2)cc1 [Compound 9e, N-[5-nitro-4-[(pyridin-2-ylmethyl)-amino]-2-(4-toluenesulfonylamino)-phenyl]-4-toluenesulfonamide]
17	COc1ccc(CNc2cc(NS(=O)(=O)c3ccc(C)cc3)c(NS(=O)(=O)c3ccc(C)cc3)cc2[N+](=O)[O-])cc1 [Compound 9f, N-[4-(4-methoxy-benzylamino)-5-nitro-2-(4-toluenesulfonylamino)-phenyl]-4-toluenesulfonamide]
65	Cc1ccc(S(=O)(=O)Nc2cc(NCc3ccccc3Cl)c([N+](=O)[O-])cc2NS(=O)(=O)c2ccc(C)cc2)cc1 [Compound 9g, N-[4-(2-chloro-benzylamino)-5-nitro-2-(4-toluenesulfonylamino)-phenyl]-4-toluenesulfonamide]
22	Cc1ccc(S(=O)(=O)Nc2cc(NCC3CCCCC3)c([N+](=O)[O-])cc2NS(=O)(=O)c2ccc(C)cc2)cc1 [Compound 9h, N-[4-(cyclohexylmethyl-amino)-5-nitro-2-(4-toluenesulfonylamino)-phenyl]-4-toluenesulfonamide]
18	Cc1ccc(S(=O)(=O)Nc2cc(NCC3(O)CCCCC3)c([N+](=O)[O-])cc2NS(=O)(=O)c2ccc(C)cc2)cc1 [Compound 9i, N-[4-(1-hydroxy-cyclohexylmethyl-amino)-5-nitro-2-(4-toluenesulfonylamino)-phenyl]-4-toluenesulfonamide]
4	Cc1ccc(S(=O)(=O)Nc2cc(NC3CCCCC3)c([N+](=O)[O-])cc2NS(=O)(=O)c2ccc(C)cc2)cc1 [Compound 9j, N-[4-cyclohexylamino-5-nitro-2-(4-toluenesulfonylamino)-phenyl]-4-toluenesulfonamide]
13	Cc1ccc(S(=O)(=O)Nc2cc(NCCCc3cn[nH]c3C)c([N+](=O)[O-])cc2NS(=O)(=O)c2ccc(C)cc2)cc1 [Compound 9k, N-[4-[3-(5-methyl-1H-pyrazol-4-yl)-propylamino]-5-nitro-2-(4-toluenesulfonylamino)-phenyl]-4-toluenesulfonamide]

Same assay, conditions: Table 2; compound at 50 μg/mL (starred values); read-out: % Inhibition Src (%), * = assayed at 50 μg/mL

inhibition at 50 µg/mL [%]	Structure (SMILES)
13	Cc1ccc(S(=O)(=O)Nc2cc(N3CCOCC3)c([N+](=O)[O-])cc2NS(=O)(=O)c2ccc(C)cc2)cc1 [Compound 9a, N-[4-(morpholin-4-yl)-5-nitro-2-(4-toluenesulfonylamino)-phenyl]-4-toluenesulfonamide]
19	Cc1ccc(S(=O)(=O)Nc2cc(NCc3cccnc3)c([N+](=O)[O-])cc2NS(=O)(=O)c2ccc(C)cc2)cc1 [Compound 9d, N-[5-nitro-4-[(pyridin-3-ylmethyl)-amino]-2-(4-toluenesulfonylamino)-phenyl]-4-toluenesulfonamide]

Same assay, conditions: Table 3, Formula II compounds; NI = no inhibition at 100 μg/mL

IC50 [µM]	Structure (SMILES)
131	CC(=O)OCCCCCOc1ccc(NS(=O)(=O)c2ccc(C)cc2)c(NS(=O)(=O)c2ccc(C)cc2)c1 [Compound 12ee, 5-[3,4-bis-(4-toluenesulfonylamino)-phenoxy]-pentyl acetate]
212	C=CCc1c(OCc2ccc(OC)cc2)ccc(NS(=O)(=O)c2ccc(C)cc2)c1NS(=O)(=O)c1ccc(C)cc1 [Compound 15a, N-[3-allyl-4-(4-methoxy-benzyloxy)-2-(4-toluenesulfonylamino)-phenyl]-4-toluenesulfonamide]
133	COc1ccc(Oc2ccc(NS(=O)(=O)c3cccc(OC)c3)c(NS(=O)(=O)c3ccc(C)cc3)c2)cc1 [Compound 22aa, 3-methoxy-N-[4-(4-methoxy-phenoxy)-2-(4-toluenesulfonylamino)-phenyl]-benzenesulfonamide]
19.5	COc1ccc(Oc2ccc(NS(=O)(=O)c3ccc(Br)s3)c(NS(=O)(=O)c3ccc(C)cc3)c2)cc1 [Compound 22bb, N-[4-(4-methoxy-phenoxy)-2-(4-toluenesulfonylamino)-phenyl]-5-bromo-thiophene-2-sulfonamide]
300	Cc1ccc(S(=O)(=O)Nc2ccc(C(=O)NC(C)(C)C)cc2NS(=O)(=O)c2ccc(C)cc2)cc1 [Compound 22c, N-t-butyl-3,4-bis-(4-toluenesulfonylamino)-benzamide]
45	COc1ccc(Oc2ccc(NS(=O)(=O)c3cccc4cnccc34)c(NS(=O)(=O)c3ccc(C)cc3)c2)cc1 [Compound 22cc, N-[4-(4-methoxy-phenoxy)-2-(4-toluenesulfonylamino)-phenyl]-isoquinoline-5-sulfonamide]
149	Cc1ccc(S(=O)(=O)Nc2ccc(C(=O)Nc3ccccc3)cc2NS(=O)(=O)c2ccc(C)cc2)cc1 [Compound 22e, N-phenyl-3,4-bis-(4-toluenesulfonylamino)-benzamide]
50	COc1ccc(Oc2ccc(NS(=O)(=O)c3ccc(C)cc3)c(NS(=O)(=O)CCc3cccc4ccccc34)c2)cc1 [Compound 22ee, N-[4-(4-methoxy-phenoxy)-2-(2-naphthalen-1-yl-ethanesulfonylamino)-phenyl]-4-toluenesulfonamide]
18	Cc1ccc(S(=O)(=O)Nc2ccc(C(=O)NCc3cccc4ccccc34)cc2NS(=O)(=O)c2ccc(C)cc2)cc1 [Compound 22g, N-naphthalen-1-ylmethyl-3,4-bis-(4-toluenesulfonylamino)-benzamide]
24	COc1ccc(Oc2ccc(NS(=O)(=O)c3ccc(C)cc3)c(NS(=O)(=O)c3ccc(Br)s3)c2)cc1 [Compound 22gg, 5-bromo-N-[5-(4-methoxy-phenoxy)-2-(4-toluenesulfonylamino)-phenyl]-thiophene-2-sulfonamide]
47	Cc1ccc(S(=O)(=O)Nc2ccc(NC(=O)Cc3ccccc3)cc2NS(=O)(=O)c2ccc(C)cc2)cc1 [Compound 22h, 2-phenyl-N-[3,4-bis-(4-toluenesulfonylamino)-phenyl]-acetamide]

Same assay, conditions: Table 3; compound at 15 μg/mL; read-out: % Inhibition at 15 μg/mL Src (%)

inhibition at 15 µg/mL [%]	Structure (SMILES)
19	C=CCOc1ccc(NS(=O)(=O)c2ccc(C)cc2)c(NS(=O)(=O)c2ccc(C)cc2)c1 [Compound 12cc, N-[4-allyloxy-2-(4-toluenesulfonylamino)-phenyl]-4-toluenesulfonamide]
36	Cc1ccc(S(=O)(=O)Nc2ccc(OCCCCCCCCO)cc2NS(=O)(=O)c2ccc(C)cc2)cc1 [Compound 12dd, N-[4-(8-hydroxy-octyloxy)-2-(4-toluenesulfonylamino)-phenyl]-4-toluenesulfonamide]
25	COc1ccc(CCNC(=O)c2ccc(NS(=O)(=O)c3ccc(C)cc3)c(NS(=O)(=O)c3ccc(C)cc3)c2)cc1 [Compound 22b, N-[2-(4-methoxy-phenyl)-ethyl]-3,4-bis-(4-toluenesulfonylamino)-benzamide]
0	Cc1ccc(S(=O)(=O)Nc2ccc(C(=O)Nc3cccnc3)cc2NS(=O)(=O)c2ccc(C)cc2)cc1 [Compound 22d, N-pyridin-3-yl-3,4-bis-(4-toluenesulfonylamino)-benzamide]
5	COC(=O)c1c(S(=O)(=O)Nc2cc(Oc3ccc(OC)cc3)ccc2NS(=O)(=O)c2ccc(C)cc2)c(C)n(C)c1C [Compound 22dd, methyl 4-[5-(4-methoxy-phenoxy)-2-(4-toluenesulfonylamino)-phenylsulfamoyl]-1,2,5-trimethyl-1H-pyrrole-3-carboxylate]
3	Cc1ccc(S(=O)(=O)Nc2ccc(C(=O)NCC(C)(C)CO)cc2NS(=O)(=O)c2ccc(C)cc2)cc1 [Compound 22f, N-(3-hydroxy-2,2-dimethyl-propyl)-3,4-bis-(4-toluenesulfonylamino)-benzamide]
2	COc1ccc(Oc2ccc(NS(=O)(=O)c3ccc(C)cc3)c(NS(=O)(=O)c3ccc(S(C)(=O)=O)cc3)c2)cc1 [Compound 22ff, 4-methanesulfonyl-N-[5-(4-methoxy-phenoxy)-2-(4-toluenesulfonylamino)-phenyl]-benzenesulfonamide]
17	COc1ccc(Oc2ccc(NS(=O)(=O)c3ccc(C)cc3)c(NS(=O)(=O)c3ccc(C)cc3OC)c2)cc1 [Compound 22hh, 2-methoxy-N-[5-(4-methoxy-phenoxy)-2-(4-toluenesulfonylamino)-phenyl]-4-methyl-benzenesulfonamide]
26	Cc1ccc(S(=O)(=O)Nc2ccc(NS(=O)(=O)c3cccs3)cc2NS(=O)(=O)c2ccc(C)cc2)cc1 [Compound 22i, N-[3,4-bis-(4-toluenesulfonylamino)-phenyl]-thiophene-2-sulfonamide]

Same assay, conditions: Table 3; compound at 50 μg/mL (starred values); read-out: % Inhibition Src (%), * = assayed at 50 μg/mL

inhibition at 50 µg/mL [%]	Structure (SMILES)
9	Cc1ccc(S(=O)(=O)Nc2ccc(OCCCCCO)cc2NS(=O)(=O)c2ccc(C)cc2)cc1 [Compound 12s, N-[4-(5-hydroxy-pentyloxy)-2-(4-toluenesulfonylamino)-phenyl]-4-toluenesulfonamide]
